Results as given in ChEMBL document CHEMBL1147072, “Synthesis and evaluation of transthyretin amyloidosis inhibitors containing carborane pharmacophores” (Proc Natl Acad Sci U S A, 2007).

Key:
Transthyretin [1] = molecular target: T1, Transthyretin (Homo sapiens, UniProt P02766); experiment: Inhibition of human transthyretin assessed as amyloid fibril formation at pH 4.4 after 72 hrs relative to control; design: scale not given: the % may be the effect or the level left
Transthyretin [2] = molecular target: T1, Transthyretin; experiment: Inhibition of human transthyretin fibril formation at pH 4.4 after 72 hrs

What does the source list for `O=C(O)c1ccccc1Nc1cccc(C(F)(F)F)c1` [FLUFENAMIC ACID]?
Activity (Transthyretin [1]): 14%; IC50 (Transthyretin [2]): 2900 nM
